# Test results reported in patent US20240207264A1, “PHARMACEUTICAL COMPOSITIONS COMPRISING INHIBITORS OF THE ANDROGEN RECEPTOR AND USES THEREOF” (ESSA PHARMA INC., priority 2021, published 2024).
# Entries after “also recorded” stand apart in the source; their conditions may differ.
# Columns and labels:
# [1] = PK study, single PO dose, rats; type: in vivo; details: Sprague-Dawley, rat, plasma, male SD rats; for half-life: read-out: T½ (converted)
# Method: A single PO dose of Compound A in three different formulations were administered to male Sprague-Dawley (SD) rats. Animals in Group 1 (Solution) received Compound A by oral gavage (PO) administration at 30 mg/kg, which was formulated in 4% NMP, 20% Capmul MCM, 21% Vitamin E TPGS, 55% PEG400. Animals in Group 2 (Suspension A) received Compound A by oral gavage (PO) administration at 100 mg/kg, which was formulated in SDD formulation with HPMCAS-H in 0.5% Methocel A4M in water. Mean plasma of Compound A was measured over 24-hour period after administration of Compound A (FIG. 15A) and PK parameters were determined (Table 29).
# [2] = PK study, single PO dose, dogs; type: in vivo; details: male, Beagle, dog, plasma; for half-life: read-out: T½ (converted)
# Method: A single PO dose of Compound A in two different formulations were administered to male Beagle dogs. Mean plasma of Compound A was measured over 24-hour period after administration of Compound A (FIG. 15B) and PK parameters were determined (Table 30).
# [3] = PK study, single PO dose, mice; type: in vivo; details: male, CD-1, mouse, plasma, male CD-1 mice
# Method: A single PO dose of Compound A in different doses in solid dispersion and at 30 mg/kg dose of Compound A in solution were administered to male CD-1 mice. Mean plasma of Compound A was measured over 24 hour period after administration of Compound A (FIG. 15C) and PK parameters were determined (Table 31).
# LNCaP = LNCaP prostate cancer xenograft model; type: in vivo; details: LNCaP (AR FL), castrated male mice, 60 mg/kg, Solution, qd24
# Method: (§1) Compound A's activity was measured in a variety of castrate-sensitive and castrate-resistant prostate cancer (CRPC) xenograft models (Table 32).
# VCaP tumors = assay: VCaP prostate cancer xenograft model; type: in vivo, SCID Beige male mice; details: VCaP (amplified AR, some AR-V7), castrated male mice, Solution, qd24
# LNCaP95 = LNCaP95 prostate cancer xenograft model; type: in vivo; details: LNCaP95 (high level AR-V7), castrated male mice, 30 mg/kg, Solution, qd24
# Method: as §1
# 22Rv1 = 22Rv1 prostate cancer xenograft model; type: in vivo; details: 22Rv1 (high level AR-V7), castrated male mice, 30 mg/kg, Solution, qd28
# Method: as §1
# HID28 = assay: Enzalutamide resistant patient-derived xenograft (PDX) model HID28; type: in vivo, nude mice; details: HID28 PDX (AR+ PSA+), castrated male mice, 60 mg/kg, SDD, qd28
# Method: as §1
# For example, intact male nude mice were engrafted with HID28 tumor fragments and once tumors reached ˜150 mm^3 the mice were castrated. The mice were enrolled in the experiment once the tumors started to regrow, 10 days post-castration. Compound A was tested in the HID28 PDX model at 60 mg/kg, QD for 28 days using SDD formulation with HPMCAS-H in 0.5% Methocel A4M in water.
# Mean tumor volume in castrated nude mice bearing enzalutamide resistant patient-derived xenograft (PDX) model HID28 was measured after oral treatment with solid dispersion composition of Compound A or enzalutamide for 28 days (n=6-7 per group) is shown in FIG. 16B.
# PC-3 = PC-3 prostate cancer xenograft model; type: in vivo; details: PC-3 (non functional AR), intact male mice, 30 mg/kg, Solution, qd28
# Method: as §1
# [4] = Phase I clinical study, safety (DLT); type: in vivo, human
# Method: (§2) Phase I clinical research study of Compound A is studied as a treatment for patients with prostate cancer. All patients in the study receives Compound A at a once daily oral dose of 200 mg, 400 mg, 600 mg, 800 mg, or 1000 mg. Compound A in this study is provided as an SDD composition with HPMCAS-H. One cycle of treatment is 28 days of dosing.
# The primary safety variable for Part 1a of the study is the incidence of protocol-defined dose limiting toxicity (DLT) during the DLT assessment period (first 28 days of dosing). The DLTs will be characterized by type, frequency, severity (as graded by National Cancer Institute Common Terminology Criteria for AEs [NCI CTCAE version 5.0]), timing, seriousness, and relationship to study drug.
# [5] = test system: serum prostate specific antigen (PSA); assay: Phase I clinical study, serum PSA; type: in vivo, human; details: 200 mg/day
# Method: as §2
# The primary efficacy variable for Part 1b of the study is the proportion of patients with a decline from baseline in prostate specific antigen (PSA) blood concentrations of ≥50% at any time point during daily dosing with Compound A,
# The study is still on-going with other dose levels.
# [6] = PO 30 mg/kg, Solution (4% NMP, 20% Capmul MCM, 21% Vitamin E TPGS, 55% PEG400)
# [7] = PO 100 mg/kg, Suspension A (SDD with HPMCAS-H in 0.5% Methocel A4M in water)
# [8] = 50 mg/kg, PO 50 mg/kg, Solution (5% NMP, 20% vitamin E TPGS, 20% PEG 300, 0.5% SLS, 1.09% HPMCAS-H, 53.91% water)
# [9] = 50 mg/kg, PO 50 mg/kg, Suspension A (SDD)
# [10] = 100 mg/kg, PO 100 mg/kg, Suspension A (SDD)
# [11] = 10 mg/kg, PO 10 mg/kg, Suspension A (SDD)
# [12] = 30 mg/kg, PO 30 mg/kg, Solution (9% DMSO, 9% NMP, 27% solutol, 55% PEG400)
# [13] = 30 mg/kg, PO 30 mg/kg, Suspension A (SDD)
# [14] = 90 mg/kg, PO 90 mg/kg, Suspension A (SDD)
# [15] = 270 mg/kg, PO 270 mg/kg, Suspension A (SDD)
# [16] = 3 subjects, 28 day dosing at 200 mg/day
smiles,measurement,setting,value
"CC(C)(c1ccc(OCc2ccnc(NS(C)(=O)=O)n2)cc1)c1cc(Cl)c(OCCCl)c(C#N)c1 [Compound A, N-(4-((4-(2-(3-chloro-4-(2-chloroethoxy)-5-cyanophenyl)propan-2-yl)phenoxy)methyl)pyrimidin-2-yl)methanesulfonamide]",AUC(0-t),[1]; [6],399 µg·h/mL
same,Cmax,[1]; [6],26.8 µg/mL
same,Tmax,[1]; [6],9.3 h
same,half-life,[1]; [6],7.6 h
same,AUC(0-t),[1]; [7],1180 µg·h/mL
same,Cmax,[1]; [7],89.8 µg/mL
same,Tmax,[1]; [7],5.3 h
same,half-life,[1]; [7],6.2 h
same,AUC(0-t),[2]; [8],648 µg·h/mL
same,Cmax,[2]; [8],45.8 µg/mL
same,Tmax,[2]; [8],2 h
same,half-life,[2]; [8],21.9 h
same,AUC(0-t),[2]; [9],845 µg·h/mL
same,Cmax,[2]; [9],55.5 µg/mL
same,Tmax,[2]; [9],3.3 h
same,half-life,[2]; [9],16.2 h
same,AUC(0-t),[2]; [10],1450 µg·h/mL
same,Cmax,[2]; [10],80.6 µg/mL
same,Tmax,[2]; [10],5.3 h
same,half-life,[2]; [10],24 h
same,AUC(0-inf),[3]; [11],189 µg·h/mL
same,AUC(0-t),[3]; [11],177 µg·h/mL
same,Cmax,[3]; [11],14.3 µg/mL
same,AUC(0-inf),[3]; [12],352 µg·h/mL
same,AUC(0-t),[3]; [12],336 µg·h/mL
same,Cmax,[3]; [12],32 µg/mL
same,AUC(0-inf),[3]; [13],604 µg·h/mL
same,AUC(0-t),[3]; [13],565 µg·h/mL
same,Cmax,[3]; [13],45.9 µg/mL
same,AUC(0-inf),[3]; [14],1700 µg·h/mL
same,AUC(0-t),[3]; [14],1570 µg·h/mL
same,Cmax,[3]; [14],110 µg/mL
same,AUC(0-inf),[3]; [15],2690 µg·h/mL
same,AUC(0-t),[3]; [15],2310 µg·h/mL
same,Cmax,[3]; [15],162 µg/mL
same,TGI (Tumor Growth Inhibition),LNCaP,93%
same,TGI (Tumor Growth Inhibition),VCaP tumors; 3 mg/kg,54%
same,TGI (Tumor Growth Inhibition),VCaP tumors; 10 mg/kg,95%
same,TGI (Tumor Growth Inhibition),VCaP tumors; 30 mg/kg,>100%
same,TGI (Tumor Growth Inhibition),LNCaP95,54%
same,TGI (Tumor Growth Inhibition),22Rv1,48%
same,TGI (Tumor Growth Inhibition),HID28,58%
same,TGI (Tumor Growth Inhibition),PC-3,0%
same,tolerability,[4]; 200 mg/day,well tolerated
same,dose limiting toxicity (DLT),[4]; [16],No DLTs were observed; also recorded: No dose limiting toxicity was observed
same,severe adverse events,[4]; [16],no severe adverse events were observed
same,Serum PSA level decline,"[5]; one subject, after 3 cycles (12 weeks)",> 50%
same,Serum PSA levels,[5]; two other subjects,showed increase
